Experiments:
Aurora-A = biological target: T1, Aurora-A (Homo sapiens, UniProt O14965); assay: Flashplate Aurora A enzyme inhibition assay; format: biochemical; conditions: Flashplate assay; IC50 range; read-out: Aurora-A inhibition
T1 sequence (O14965 1-403): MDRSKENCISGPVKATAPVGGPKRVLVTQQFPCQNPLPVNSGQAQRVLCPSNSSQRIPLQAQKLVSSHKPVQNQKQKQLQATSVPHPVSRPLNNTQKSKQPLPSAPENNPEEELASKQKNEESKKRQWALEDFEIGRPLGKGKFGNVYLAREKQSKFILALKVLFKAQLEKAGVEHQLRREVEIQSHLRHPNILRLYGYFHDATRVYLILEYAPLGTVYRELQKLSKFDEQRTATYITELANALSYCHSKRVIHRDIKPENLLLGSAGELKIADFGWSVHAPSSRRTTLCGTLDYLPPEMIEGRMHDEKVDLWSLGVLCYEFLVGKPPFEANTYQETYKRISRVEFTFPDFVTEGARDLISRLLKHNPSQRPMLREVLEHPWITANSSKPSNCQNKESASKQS
Procedure: Flashplate® Assay for Identification and Evaluation of Aurora-A Inhibitors
On this assay 384-well Basic Flashplate® (SMP400E, PerkinElmer) as solid assay platform was used. The plates were coated overnight at 4° C. with […] at 100 μg/ml in PBS buffer and used after being washed twice with PBS. 5 μl of compound in 2% DMSO was added to each well followed by 15 μl master mix of kinase buffer (50 mM Tris pH 7.5, 10 mM NaCl, 2.5 mM MgCl2, 1 mM […], 20 μM ATP, and 0.025 μCi/μl ^33P-ATP). Finally, 250 ng per well of Aurora-A enzyme was added. The plate was shaken for approximately 2 min on a flat-bed plate shaker (Wellmix, Denley, UK) and incubated for 2 hours at room temperature. The reaction was stopped by washing the plate twice on a 16-pin wash (ELX50 BioTek Instruments Ltd., Northstar, Bedford, UK) with 10 mM sodium pyrophosphate. The plate was then read on a TopCount-NX™ (PerkinElmer Life Sciences UK Ltd., Hounslow, UK).

HCT116 cells = assay: Cell viability assay (MTT) in HCT116 cell line; format: cell-based; conditions: Homo sapiens, HCT-116, 72 hrs, IC50 range, read-out: HCT116 cell growth inhibition
Procedure: Cell Viability Assay: Determination of IC50 of Aurora Inhibitors in HCT116 Cell Line Using MTT Assay. The effects of compounds of the Examples on cellular proliferation were determined using the MTT assay according to manufacturer's instructions (Sigma). Briefly, the human colon tumour cells HCT116, were seeded in triplicate into 96-well plates at 2500 cells/well 24 hours before treatment with a range of concentrations of Aurora inhibitors (0-50 μM). After 72 hrs, 15 μl/well of 0.5% 3-(4,5-dimethylthiazol-2-yl)-2,5-diphenyltetrazolium bromide (MTT) was added to the cells for 4 hrs at 37° C., the dye-stained viable cells were extracted by adding 150 μl/well of dimethyl sulphoxide (DMSO). […] The IC50 was calculated using the Prism software.

SMILES	IC50 (Aurora-A) [nM]	IC50 (HCT116 cells) [nM]
NCc1ccc(-c2nc3c(N4CCN(Cc5cccnc5)CC4)c(Br)cnc3[nH]2)cc1 [Example 60, (4-(6-Bromo-7-(4-(pyridin-3-ylmethyl)piperazin-1-yl)-3H-imidazo[4,5-b]pyridin-2-yl)phenyl)methanamine]	< 500	500 to 2000
CCN1CCN(c2c(Cl)cnc3[nH]c(-c4ccc(Cn5cccn5)cc4)nc23)CC1 [Example 143, 2-(4-((1H-pyrazol-1-yl)methyl)phenyl)-6-chloro-7-(4-ethylpiperazin-1-yl)-3H-imidazo[4,5-b]pyridine]	< 500	< 500
Brc1cnc2[nH]c(-c3ccc(N4CCOCC4)cc3)nc2c1N1CCN(Cc2cncnc2)CC1 [Example 123, 4-(4-(6-Bromo-7-(4-(pyrimidin-5-ylmethyl)piperazin-1-yl)-3H-imidazo[4,5-b]pyridin-2-yl)phenyl)morpholine]	< 500	500 to 2000
COc1ccc(-c2nc3c(N4CCN(C(C)c5ccncc5)CC4)c(Cl)cnc3[nH]2)cc1 (centres unmarked) [Example 142, 6-Chloro-2-(4-methoxyphenyl)-7-(4-(1-(pyridin-4-yl)ethyl)piperazin-1-yl)-3H-imidazo[4,5-b]pyridine]	< 500	< 500
Cn1ccnc1CN1CCN(c2c(Br)cnc3[nH]c(-c4ccc(CN5CCOCC5)cc4)nc23)CC1 [Example 166, 4-(4-(6-Bromo-7-(4-((1-methyl-1H-imidazol-2-yl)methyl)piperazin-1-yl)-3H-imidazo[4,5-b]pyridin-2-yl)benzyl)morpholine]	< 500	500 to 2000
CN(C)c1ccc(-c2nc3c(N4CCN(CC(=O)Nc5cccnc5)CC4)c(Br)cnc3[nH]2)cc1 [Example 21, 2-(4-(6-Bromo-2-(4-(dimethylamino)phenyl)-3H-imidazo[4,5-b]pyridin-7-yl)piperazin-1-yl)-N-(pyridin-3-yl)acetamide]	< 500	500 to 2000
Cc1csc(NC(=O)CN2CCN(c3c(Cl)cnc4[nH]c(-c5ccc(N(C)C)cc5)nc34)CC2)n1 [Example 23, 2-(4-(6-Chloro-2-(4-(dimethylamino)phenyl)-3H-imidazo[4,5-b]pyridin-7-yl)piperazin-1-yl)-N-(4-methylthiazol-2-yl)acetamide]	< 500	500 to 2000
FC(F)(F)c1ccc(CN2CCN(c3c(Br)cnc4[nH]c(-c5ccc(CN6CCOCC6)cc5)nc34)CC2)cn1 [Example 125, 4-(4-(6-Bromo-7-(4-((6-(trifluoromethyl)pyridin-3-yl)methyl)piperazin-1-yl)-3H-imidazo[4,5-b]pyridin-2-yl)benzyl)morpholine]	< 500	< 500
COc1ccc(-c2nc3c(N4CCN(Cc5cccc6c5OCO6)CC4)c(Br)cnc3[nH]2)cc1 [Example 119, 7-(4-(Benzo[d][1,3]dioxol-4-ylmethyl)piperazin-1-yl)-6-bromo-2-(4-methoxyphenyl)-3H-imidazo[4,5-b]pyridine]	< 500	< 500
Brc1cnc2[nH]c(-c3ccc(N4CCNCC4)cc3)nc2c1N1CCN(Cc2cccnc2)CC1 [Example 104, 6-Bromo-2-(4-(piperazin-1-yl)phenyl)-7-(4-(pyridin-3-ylmethyl)piperazin-1-yl)-3H-imidazo[4,5-b]pyridine]	< 500	< 500
COc1ccc(-c2nc3c(N4CCN(Cc5cncnc5)CC4)c(Br)cnc3[nH]2)cc1 [Example 121, 6-Bromo-2-(4-methoxyphenyl)-7-(4-(pyrimidin-5-ylmethyl)piperazin-1-yl)-3H-imidazo[4,5-b]pyridine]	< 500	< 500
Brc1cnc2[nH]c(-c3ccc(CN4CCOCC4)cc3)nc2c1N1CCN(CC2CCC2)CC1 [Example 150, 4-(4-(6-Bromo-7-(4-(cyclobutylmethyl)piperazin-1-yl)-3H-imidazo[4,5-b]pyridin-2-yl)benzyl)morpholine]	< 500	< 500
NCCc1nc2c(N3CCN(Cc4cccnc4)CC3)c(Br)cnc2[nH]1 [Example 98, 2-(6-Bromo-7-(4-(pyridin-3-ylmethyl)piperazin-1-yl)-3H-imidazo[4,5-b]pyridin-2-yl)ethanamine]	2000 to 10000	2000 to 50000
COc1ccc(-c2nc3c(N4CCN(C(C)c5ccncc5)CC4)c(Br)cnc3[nH]2)cc1 (centres unmarked) [Example 54, 6-Bromo-2-(4-methoxyphenyl)-7-(4-(1-(pyridin-4-yl)ethyl)piperazin-1-yl)-3H-imidazo[4,5-b]pyridine]	< 500	< 500
Cc1noc(C)c1CN1CCN(c2c(Br)cnc3[nH]c(-c4ccc(CN5CCOCC5)cc4)nc23)CC1 [Example 128, 4-(4-(6-Bromo-7-(4-((3,5-dimethylisoxazol-4-yl)methyl)piperazin-1-yl)-3H-imidazo[4,5-b]pyridin-2-yl)benzyl)morpholine]	< 500	< 500
COc1ccc(-c2nc3c(N4CCN(Cc5cncs5)CC4)c(Br)cnc3[nH]2)cc1 [Example 170, 5-((4-(6-Bromo-2-(4-methoxyphenyl)-3H-imidazo[4,5-b]pyridin-7-yl)piperazin-1-yl)methyl)thiazole]	< 500	500 to 2000
NC(=O)C1CC1c1nc2c(N3CCN(CC(=O)Nc4nccs4)CC3)c(Br)cnc2[nH]1 (centres unmarked) [Example 46, 2-(6-Bromo-7-(4-(2-oxo-2-(thiazol-2-ylamino)ethyl)piperazin-1-yl)-3H-imidazo[4,5-b]pyridin-2-yl)cyclopropanecarboxamide]	500 to 2000	2000 to 50000
CN(C)c1ccc(-c2nc3c(N4CCN(C(=O)Nc5nccs5)CC4)c(Br)cnc3[nH]2)cc1 [Example 42, 4-(6-Bromo-2-(4-(dimethylamino)phenyl)-3H-imidazo[4,5-b]pyridin-7-yl)-N-(thiazol-2-yl)piperazine-1-carboxamide]	< 500	2000 to 50000
COc1ccc(CN2CCN(c3c(Br)cnc4[nH]c(-c5ccc(CN6CCOCC6)cc5)nc34)CC2)cn1 [Example 117, 4-(4-(6-Bromo-7-(4-((6-methoxypyridin-3-yl)methyl)piperazin-1-yl)-3H-imidazo[4,5-b]pyridin-2-yl)benzyl)morpholine]	< 500	500 to 2000
CN(C)Cc1ccc(-c2nc3c(N4CCN(Cc5cccnc5)CC4)c(Br)cnc3[nH]2)cc1 [Example 61, 1-(4-(6-Bromo-7-(4-(pyridin-3-ylmethyl)piperazin-1-yl)-3H-imidazo[4,5-b]pyridin-2-yl)phenyl)-N,N-dimethylmethanamine]	< 500	500 to 2000
COc1ccc(-c2nc3c(N4CCN(Cc5ccncc5)CC4)c(Br)cnc3[nH]2)cc1 [Example 67, 6-Bromo-2-(4-methoxy-phenyl)-7-(4-pyridin-4-ylmethyl-piperazin-1-yl)-3H-imidazo[4,5-b]pyridine]	< 500	< 500
Clc1cnc2[nH]c(-c3ccc(Cn4cccn4)cc3)nc2c1N1CCN(Cc2ccncc2)CC1 [Example 83, 2-(4-((1H-Pyrazol-1-yl)methyl)phenyl)-6-chloro-7-(4-(pyridin-4-ylmethyl)piperazin-1-yl)-3H-imidazo[4,5-b]pyridine]	< 500	< 500
O=C(CN1CCN(c2c(Br)cnc3[nH]c(-c4cccnc4)nc23)CC1)Nc1nccs1 [Example 44, 2-(4-(6-Bromo-2-(pyridin-3-yl)-3H-imidazo[4,5-b]pyridin-7-yl)piperazin-1-yl)-N-(thiazol-2-yl)acetamide]	< 500	500 to 2000
CN(C)c1ccc(-c2nc3c(N4CCN(S(C)(=O)=O)CC4)c(Br)cnc3[nH]2)cc1 [Example 49, 4-(6-Bromo-7-(4-(methylsulfonyl)piperazin-1-yl)-3H-imidazo[4,5-b]pyridin-2-yl)-N,N-dimethylaniline]	< 500	500 to 2000
CC(C)(C)OC(=O)N1CCN(Cc2ccc(-c3nc4c(N5CCN(Cc6cccnc6)CC5)c(Br)cnc4[nH]3)cc2)CC1 [Example 105, tert-Butyl 4-(4-(6-bromo-7-(4-(pyridin-3-ylmethyl)piperazin-1-yl)-3H-imidazo[4,5-b]pyridin-2-yl)benzyl)piperazine-1-carboxylate]	< 500	500 to 2000

Source: patent publication US8088761B2, “Enzyme inhibitors” (Cancer Research Technology Limited, priority 2005, dated 2012)
